Results published in US20260345555A1, “Compositions and Methods for Protecting Salivary Glands from Off-Target Radiation Damage” (University of Rochester, priority 2022, published 2026).
Structures can show the parent of a compound that is named as a salt.

Each compound was assayed on Reduced glutathione in salivary gland cell clusters (SGm) (assay: Glutathione assay in salivary gland tissue chip, 4 days post-radiation (15 Gy); also first screen of Selleck library at 100 μM). Details: not given.
Format: cell-based, mouse
Excerpt: A salivary gland tissue chip was leveraged for high-content drug screening to identify novel radioprotective compounds (Song Y et al., Commun Biol., 2021, 4). The chip platform consists of an array of near-spherical microbubble (MB) cavities formed in poly(dimethylsiloxane) (PDMS). Each chip, containing ~50 MBs, affixed within wells of a 96-well plate (FIG. 1C). Primary salivary gland cell clusters (FIG. 1A), suspended in a poly(ethylene glycol) (PEG) hydrogel precursor and MMP-degradable peptide crosslinker solution together with the photoinitiator LAP, were applied to the chip allowing the clusters to deposit into the MBs (FIG. 1D). In situ polymerization of the hydrogel was achieved using long-wave, low intensity UV light. Over time, the cell clusters aggregate and proliferate to form SGm (FIG. 1C).
The glutathione assay was used to measure glutathione levels at various time points post-radiation to determine the optimal time point for detecting differences between 0 Gy and 15 Gy. Based on the data, the greatest signal separation was measured at 4 days post-irradiation (FIG. 9). This timepoint is similar to previous reports on decreases in glutathione post-radiation and was used for all experiments moving forward (Meeks L et al., Physiological Genomics, 2021, 53: 85-98).
The dose response to WR-1065 was examined to determine effective concentrations of WR-1065 to prevent the reduction of glutathione levels post-radiation. A SGm tissue chip was cultured for 4 days to allow spheres to form. The chip was then treated with WR-1065 30 minutes before and during radiation, followed by drug wash out with media 30 minutes post-radiation (FIG. 2A). This dosing scheme is consistent with the use of Amifostine clinically and with previous work. The glutathione assay was performed at 4 days post-radiation (FIG. 2A). […] Moreover, it is clinically relevant as 15-30 minutes before radiation, patients are administered Amifostine intravenously at 200 mg/m (Escobar A et al., IntechOpen, 2019, pp. 15-37; Eisbruch A, J Clin Oncol, 2011, 29: 119-121; Bardet, E. et al. Semin Oncol, 2002, 29, 57-60). Assuming an average adult body surface area of 17,000 cm^2 and a blood volume of 1.35 gallons (5.1 liters), Amifostine is administered at 300 μM (Mosteller, R. D. N Engl J Med 317, 1098 (1987)).
The glutathione and senescence assays were used to screen a library of FDA-approved drugs (Selleck Chemicals) at 100 μM. Drugs were first screened using the glutathione assay according to the timeline depicted in FIG. 2A. Any compound resulting in statistically similar glutathione levels compared to 0 Gy control was considered a hit (FIG. 4, grey circles). Hits with the glutathione assay were then tested with the senescence assay and considered a “double hit” if senescence levels were statistically similar to levels at 0 Gy (FIG. 4, black circles). […] While this hit rate is higher than many other drug screening reports (0.1-0.3%), this may be due to the statistical rigor afforded by the tissue chip format (Blanchard, C et al., Antimicrob Agents Chemother 2016, 60, 862-872; Colquhoun, J. M et al., Antibiotics (Basel) 2019, 8, 48). Additionally, phenotypic screens generally have higher hit rates than target-based screens (>1%) (Moffat, J. G et al., Nature Reviews Drug Discovery 2017, 16, 531-543; Rottman, M et al., Science 2010, 329, 1175-1180).
Mice were euthanized and the submandibular glands (SMG) were removed and chopped with a razor blade for 5 min. The tissue was then incubated in Hank's buffered salt solution (HBSS) containing 15 mM HEPES, 50 U/mL collagenase type II (Thermo Fischer 17101015), and 100 U/mL hyaluronidase (Sigma Aldrich H3506) at 37 °C for 30 min. Cells were centrifuged, then resuspended in HBSS with 15 mM HEPES and passed through 100 μm and 20 μm mesh filters to isolate clusters between 20-100 μm. The digestion protocol produces cell cluster sizes evenly distributed between 20 to 100 μm (Song, Y et al., Advanced Healthcare Materials). […]

First: O=P1(N(CCCl)CCCl)NCCCO1 (centres unmarked) [Clafen (Cyclophosphamide)]
Second: O=P1(NCCCl)OCCCN1CCCl (centres unmarked) [Ifosfamide]
The “Glutathione: Normalized mean intensity” value of the first is lower: 0.5778 for the first, 0.7162 for the second.

Compared with `CC(=O)Oc1ccccc1C(=O)Nc1ncc([N+](=O)[O-])s1` [Nitazoxanide (Alinia, Annita)], `Cc1c(OCC(F)(F)F)ccnc1C[S+]([O-])c1nc2ccccc2[nH]1` (centres unmarked) [Lansoprazole] is higher in “Glutathione: Normalized mean intensity” value: 0.5996 for the first, 0.6174 for the second.

Same assay, conditions: first screen of Selleck library at 100 μM, 15 Gy, 4 days post-radiation

Compared with `NC(=O)c1ncn([C@@H]2O[C@H](CO)[C@@H](O)[C@H]2O)c1N` [Acadesine], `CC(=O)OCC(=O)NCCCOc1cccc(CN2CCCCC2)c1` [Roxatidine acetate HCl] is higher in “Glutathione normalized mean intensity” value: 0.3637 for the first, 0.4245 for the second.

Going from `CCOC(=O)[C@H](CCc1ccccc1)N[C@@H](C)C(=O)N1[C@H](C(=O)O)C[C@@H]2CCC[C@@H]21` [Ramipril (Altace)] to `CCCCC(=O)N(Cc1ccc(-c2ccccc2-c2nn[nH]n2)cc1)[C@H](C(=O)O)C(C)C` [Valsartan (Diovan)], the “Glutathione normalized mean intensity” value falls from 0.7145 to 0.6351.

First: CC(=O)OCC(=O)[C@@]12N=C(C)O[C@@H]1C[C@H]1[C@@H]3CCC4=CC(=O)C=C[C@]4(C)[C@H]3[C@@H](O)C[C@@]12C [Deflazacort (Calcort)]
Second: CN=C(NC#N)NCCSCc1nc[nH]c1C [Cimetidine (Tagamet)]
The “Glutathione normalized mean intensity” value of the first is lower: 0.5114 for the first, 0.9597 for the second.

Compared with `C[C@@H]1[C@H](O)[C@@H](C)/C=C/C=C/CC/C=C/C=C/C=C/C=C/C(O[C@H]2O[C@H](C)[C@@H](O)[C@H](N)[C@@H]2O)CC2O[C@](O)(CC(O)C(O)CCC(O)CC(O)CC(O)CC(=O)O[C@H]1C)CC(O)C2C(=O)O` (some centres unmarked) [Nystatin (Mycostatin)], `CC(C(=O)O)c1ccc2c(c1)Cc1cccnc1O2` (centres unmarked) [Pranoprofen] is higher in “Glutathione normalized mean intensity” value: 0.3498 for the first, 0.7582 for the second.

First: CC(C)[C@H](N)C(=O)OCCOCn1cnc2c(=O)[nH]c(N)nc21 [Valaciclovir HCl]
Second: Cc1c(Cl)cccc1Nc1ccccc1C(=O)O [Tolfenamic acid]
The “Glutathione normalized mean intensity” value of the first is lower: 0.6362 for the first, 0.8008 for the second.

First: Clc1ccc(C(Cn2ccnc2)OCc2ccsc2Cl)c(Cl)c1 (centres unmarked) [Tioconazole]
Second: COc1ccc([C@@H]2Sc3ccccc3N(CCN(C)C)C(=O)[C@@H]2OC(C)=O)cc1 [Diltiazem HCL (Tiazac)]
The “Glutathione normalized mean intensity” value of the first is lower: 0.6333 for the first, 0.7425 for the second.

First: CCCc1cc(C(N)=S)ccn1 [Protionamide (Prothionamide)]
Second: O=c1c(-c2ccc(O)cc2)coc2cc(O)ccc12 [Daidzein]
The “Glutathione normalized mean intensity” value of the first is higher: 0.6328 for the first, 0.5394 for the second.

First: CCC1(c2ccccc2)C(=O)NCNC1=O [Primidone (Mysoline)]
Second: CC(C)C(=O)Nc1ccc([N+](=O)[O-])c(C(F)(F)F)c1 [Flutamide (Eulexin)]
The “Glutathione normalized mean intensity” value of the first is higher: 0.8725 for the first, 0.6406 for the second.

Compared with `COc1c2occc2cc2ccc(=O)oc12` [Methoxsalen (Oxsoralen)], `COc1ccccc1OCC(O)CN1CCN(CC(=O)Nc2c(C)cccc2C)CC1` (centres unmarked) [Ranolazine (Ranexa)] is lower in “Glutathione normalized mean intensity” value: 0.6397 for the first, 0.5015 for the second.

First: CO[C@H]1/C=C/O[C@@]2(C)Oc3c(C)c(O)c4c(O)c(c5c(nc6cc(C)ccn65)c4c3C2=O)NC(=O)/C(C)=C\C=C\[C@H](C)[C@H](O)[C@@H](C)[C@@H](O)[C@@H](C)[C@H](OC(C)=O)[C@@H]1C [Rifaximin (Xifaxan)]
Second: NCC1CCC(C(=O)O)CC1 (centres unmarked) [Tranexamic acid (Transamin)]
The “Glutathione normalized mean intensity” value of the first is lower: 0.3977 for the first, 0.7568 for the second.

Going from `C=CCc1cc(OC)c(O)c(C(=O)NCCO)c1` [Alibendol] to `CC(C)OC(=O)C(C)(C)Oc1ccc(C(=O)c2ccc(Cl)cc2)cc1` [Fenofibrate (Tricor, Trilipix)], the “Glutathione normalized mean intensity” value falls from 0.7165 to 0.5348.

Compared with `CC[C@H]1OC(=O)[C@H](C)[C@@H](O[C@H]2C[C@@](C)(OC)[C@@H](O)[C@H](C)O2)[C@H](C)[C@@H](O[C@@H]2O[C@H](C)C[C@H](N(C)C)[C@H]2O)[C@](C)(O)C[C@@H](C)CN(C)[C@H](C)[C@@H](O)[C@]1(C)O` [Azithromycin (Zithromax)], `COc1ccc(CC2c3cc(OC)c(OC)cc3CC[N+]2(C)CCC(=O)OCCCCCOC(=O)CC[N+]2(C)CCc3cc(OC)c(OC)cc3C2Cc2ccc(OC)c(OC)c2)cc1OC` (centres unmarked) [Atracurium besylate] is lower in “Glutathione normalized mean intensity” value: 0.8765 for the first, 0.6611 for the second.

Compared with `COC(=O)Nc1nc2ccc([S+]([O-])c3ccccc3)cc2[nH]1` (centres unmarked) [Oxfendazole], `O=c1[nH]c(=O)n([C@H]2C[C@H](O)[C@@H](CO)O2)cc1C(F)(F)F` [Trifluridine (Viroptic)] is higher in “Glutathione normalized mean intensity” value: 0.6 for the first, 0.7468 for the second.

Compared with `COc1cc(NS(=O)(=O)c2ccc(N)cc2)nc(OC)n1` [Sulphadimethoxine], `CN1[C@@H]2CC[C@H]1C[C@@H](OC(=O)c1c[nH]c3ccccc13)C2` [Tropisetron] is lower in “Glutathione normalized mean intensity” value: 0.8846 for the first, 0.5993 for the second.

First: CC1=CC(=O)c2ccccc2C1=O [Menadione]
Second: Cc1cc(NS(=O)(=O)c2ccc(N)cc2)no1 [Sulfamethoxazole]
The “Glutathione normalized mean intensity” value of the first is lower: 0.4363 for the first, 0.8442 for the second.

First: CC(=O)[C@H]1CC[C@H]2[C@@H]3CC=C4C[C@@H](O)CC[C@]4(C)[C@H]3CC[C@]12C [Pregnenolone]
Second: c1ccc(-c2ccc(C(c3ccccc3)n3ccnc3)cc2)cc1 (centres unmarked) [Bifonazole]
The “Glutathione normalized mean intensity” value of the first is lower: 0.6057 for the first, 0.6115 for the second.

First: O=C(CCCN1CCC(O)(c2ccc(Cl)cc2)CC1)c1ccc(F)cc1 [Haloperidol (Haldol)]
Second: O=C(O)CSCC(=O)NC1CCSC1=O (centres unmarked) [Erdosteine]
The “Glutathione normalized mean intensity” value of the first is higher: 0.6675 for the first, 0.5728 for the second.

First: O=C([O-])c1cc(=O)c2c(OCC(O)COc3cccc4oc(C(=O)[O-])cc(=O)c34)cccc2o1.[Na+].[Na+] [Disodium Cromoglycate]
Second: CCc1cc(C(N)=S)ccn1 [Ethionamide]
The “Glutathione normalized mean intensity” value of the first is lower: 0.6798 for the first, 0.7451 for the second.

Compared with `CN(C)[C@@H](CCOc1cccc2ccccc12)c1ccccc1` [Dapoxetine hydrochloride (Priligy)], `Nc1ncn([C@@H]2O[C@H](CO)[C@@H](O)[C@H]2O)c(=O)n1` [Azacitidine (Vidaza)] is lower in “Glutathione normalized mean intensity” value: 0.7539 for the first, 0.5322 for the second.

Compared with `CCOC(=O)[C@H](CCc1ccccc1)N[C@@H](C)C(=O)N1CCC[C@H]1C(=O)O` [Enalapril maleate (Vasotec)], `C[C@H]1COc2c(N3CCN(C)CC3)c(F)cc3c(=O)c(C(=O)O)cn1c23` [Levofloxacin (Levaquin)] is lower in “Glutathione normalized mean intensity” value: 0.8307 for the first, 0.6541 for the second.

Compared with `Cc1ncc([N+](=O)[O-])n1CCO` [Metronidazole (Flagyl)], `O=P(O)(O)C(O)(Cc1cccnc1)P(=O)(O)O` [Risedronic acid (Actonel)] is higher in “Glutathione normalized mean intensity” value: 0.5627 for the first, 0.6565 for the second.

Compared with `Nc1nc(O)c2ncn(COC(CO)CO)c2n1` [Ganciclovir], `NC(=O)c1cccnc1` [Nicotinamide (Niacinamide)] is higher in “Glutathione normalized mean intensity” value: 0.5803 for the first, 0.6872 for the second.

First: Cc1nnc(NS(=O)(=O)c2ccc(N)cc2)s1 [Sulfamethizole (Proklar)]
Second: Vitamin B12
The “Glutathione normalized mean intensity” value of the first is lower: 0.4719 for the first, 0.7029 for the second.
